Test system: Escherichia coli ATCC 25922
Assay: ASTM E3160-18 antibacterial efficacy of treated fabric, with ASTM E3162-18 wash durability
Type: cell-based
Conditions: cotton, use level 250-2000 ppm by row; for AM Activity after 25 Real Time Washes: after 25 real time washes (ASTM-E3162-18); for Initial AM Activity: before washing
Experimental: (Procedure 1A) Exhaust Method: Alpha-1,6-glucan ether compounds (e.g., as prepared in Materials/Methods) were exhaust-applied using Werner Mathis AG BFA-12 exhaust equipment. Individual formulation baths comprising desired concentrations of a glucan ether polymer in water were prepared. Each fabric sample (20 g) was loosely folded horizontally and placed into a test canister, followed by addition of 200 ml of a bath solution. The canisters were then closed and secured to the rotating wheel of the equipment. The rotation speed of the wheel was set to 35 rpm, switching from clockwise to counterclockwise modes at 1-minute intervals. In each case, the instrument, with the samples already loaded, would first heat up at a selected rate of heating until the target temperature was reached, maintaining the temperature for preset durations, before cooling down to initial temperature. Once the exhaustion process was complete, all the fabric samples were removed from the exhaust canisters and passed through padding equipment (Fanyuan Instruments, DW2010A) set to a pressure of 8.4 kg to squeeze out the excess water. Lastly, each sample was dried in a MATHIS lab dryer LTE for 5 minutes at 120° C.
(Procedure 1B) Padding Method: Alpha-1,6-glucan ether compounds (e.g., as prepared in Materials/Methods) were also applied to fabric samples via a padding process using a MATHIS HF or Fanyuan Instruments (DW2010A) padder. Dry fabric was submerged into a bath containing an aqueous solution of glucan ether compound at a desired concentration in water and passed through padder rollers to squeeze out (applied pressure equaled 3.1 bar) excess treatment solution. Each fabric sample was dried and cured in a MATHIS lab dryer LTE for 5 minutes at 120° C. Each glucan solution was prepared to account for water weight pick-up by each fabric type and their exhaust potential.
(Procedure 2A) ASTM E3160-18: In some cases, an alpha-1,6-glucan ether compound herein was considered to be antimicrobially efficient if it imparted a >3 log10 reduction of bacterial growth as tested by the American Society for Testing and Materials (ASTM) method E3160-18 (Quantitative Evaluation of the Antibacterial Properties of Porous Antibacterial Treated Articles, incorporated herein by reference) at a use level ≤5000 ppm. The ASTM E3160 method was performed as follows: The day before the test, a culture of Escherichia coli of the American Type Culture Collection (ATCC) 25922 was inoculated by transferring a single colony from tryptic soy agar (TSA), using a sterile loop, into a tryptic soy broth (TSB). On the day of the experiment (next day), each fabric sample (treated with an alpha-1,6-glucan ether herein or a control compound, e.g., prepared by Procedure 1A above) was cut into three 0.40-g swatches (about 1×1 inch). Each fabric swatch was placed into a 50-mL sterile specimen cup. On the same day, bacterial/working inoculum was prepared by diluting the overnight culture of E. coli into phosphate buffer supplemented with TSB (1:500) and 0.05% TRITON X-100 to obtain a bacterial concentration that was between 2.5×10^5 colony forming units (CFU)/mL and 1.0×10^6 CFU/mL, with a target concentration of 6×10^5 CFU/mL. All samples were inoculated by applying 0.2 mL of working inoculum in several aliquots directly onto the fabric surface, and were allowed to incubate for 24 hours at 37° C. Samples were neutralized with 10 mL Dey-Engley (D-E) neutralizing buffer and enumerated in triplicate in 96-well plates containing 180 μL TSB by transferring 20 μL of neutralized sample to the top well of the 96-well plates and serially diluting 20 μL down the plate.

| SMILES | AM Activity after 25 Real Time Washes [log10 log10 reduction] | Initial AM Activity [log10 log10 reduction] |
| --- | --- | --- |
| CCCCCCCCCCCCCCCCCC[N+](C)(C)CCC[Si](O)(O)O.[Cl-] [Comparative 3, 3-(trihydroxysilyl)propyldimethyl-octadecyl ammonium chloride] | <1 | 5 |
| CCCCCCCCCCCC(=O)N[C@@H](CCCNC(=N)N)C(=O)OCC [Comparative 5, Lauroyl arginine ethyl ester] | <1 | 5 |
| CCCCCCCCCCCC[N+](C)(C)CC(O)CCl.[Cl-] (centres unmarked) [Comparative 6, 3-chloro-2-hydroxypropyl dodecyldimethylammonium chloride] | <2 | 5 |
| CCCCCCCCCCCC[N+](C)(C)C.[Cl-] [Comparative 7, dodecyltrimethylammonium chloride] | <1 | 5 |
